Test results reported in PubChem BioAssay (NCI).
Values joined by “and” are separate entries in the source; they are usually repeats but may differ in a detail not shown here. Equal values may be shown once.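 How tested: cells in 96-well plates exposed to compound for 48 hours at five concentrations. Here, GI50 denotes the concentration required for 50% inhibition of growth. Definition used: TGI = concentration required for complete inhibition of growth.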

Columns and labels:
Assay in all cases: DTP human tumour cell line panel, 48 h
UACC-257 melanoma = tested on: UACC-257 melanoma
BT-549 breast = tested on: BT-549 breast
MDA-MB-435 = tested on: MDA-MB-435
HCC-2998 colon = tested on: HCC-2998 colon
A498 renal = tested on: A498 renal
KM12 colon = tested on: KM12 colon
SF-268 CNS = tested on: SF-268 CNS
SK-MEL-28 melanoma = tested on: SK-MEL-28 melanoma
NCI-H23 lung = tested on: NCI-H23 lung
NCI-H226 lung = tested on: NCI-H226 lung

COc1ccc(OC)c2sc(N3C(=O)/C(=C/c4ccccc4S)N=C3c3ccccc3)nc12
TGI (UACC-257 melanoma): > 100 µM | TGI (BT-549 breast): > 100 µM | TGI (MDA-MB-435): 52 µM | TGI (HCC-2998 colon): > 100 µM | TGI (A498 renal): > 100 µM | TGI (KM12 colon): > 100 µM | TGI (SF-268 CNS): > 100 µM | TGI (SK-MEL-28 melanoma): > 100 µM

CC(=O)OCCC[C@@H]1C(=C(C)C)CCC2[C@@]1(C)CC[C@@]1(C)C[C@](C)(CCC=C(C)C)CC[C@]21C (stereo not given in full)
TGI (UACC-257 melanoma): > 100 µM | TGI (BT-549 breast): > 100 µM | TGI (MDA-MB-435): > 100 µM | TGI (HCC-2998 colon): > 100 µM | TGI (A498 renal): > 100 µM | TGI (KM12 colon): > 100 µM | TGI (NCI-H23 lung): > 100 µM | TGI (SF-268 CNS): > 100 µM | TGI (SK-MEL-28 melanoma): > 100 µM | TGI (NCI-H226 lung): > 100 µM

O=C1c2scnc2-c2nccc3c2c1nc1ccccc13
TGI (UACC-257 melanoma): 1.69 µM | TGI (BT-549 breast): 2.94 µM | TGI (MDA-MB-435): 0.307 µM | TGI (HCC-2998 colon): 2.48 µM | TGI (A498 renal): 2.52 µM | TGI (NCI-H23 lung): 1.2 µM | TGI (SF-268 CNS): > 100 µM | TGI (SK-MEL-28 melanoma): 2.56 µM

CC(=O)C1=C(O)C2(O)C(=O)c3c(c(C)c4ccc(C)c(O)c4c3O)CC2C(N)C1=O (stereo not given)
TGI (UACC-257 melanoma): 11.9 µM | GI50 (BT-549 breast): 0.762 µM | TGI (BT-549 breast): 13.6 µM | GI50 (MDA-MB-435): 1110 nM | TGI (MDA-MB-435): 4.86 µM | TGI (HCC-2998 colon): 15 µM | TGI (A498 renal): 8.45 µM | TGI (KM12 colon): 8.29 µM | TGI (NCI-H23 lung): 7.14 µM | TGI (SF-268 CNS): 13.6 µM | TGI (SK-MEL-28 melanoma): 13.3 µM | TGI (NCI-H226 lung): 8.2 µM

CCCCC1Cc2cc(OC)ccc2-c2nc3cc(OC)ccc3n21 (stereo not given) (tested in a mixture with another compound)
TGI (UACC-257 melanoma): 29.9 µM | TGI (BT-549 breast): 33.3 µM | TGI (MDA-MB-435): 26.3 µM | TGI (KM12 colon): 43.4 µM | TGI (NCI-H23 lung): 27.8 µM | TGI (SF-268 CNS): 33.5 µM | TGI (NCI-H226 lung): 28.1 µM

Cc1c(N)nc([C@H](CC(N)=O)NC[C@H](N)C(N)=O)nc1C(=O)N[C@H](C(=O)N[C@H](C)[C@@H](O)[C@H](C)C(=O)N[C@H](C(=O)NCCc1nc(-c2nc(C(=O)NCCC[S+](C)C)cs2)cs1)[C@@H](C)O)C(OC1OC(CO)C(O)C(O)C1OC1OC(CO)C(O)C(OC(N)=O)C1O)c1cnc[nH]1 (stereo not given in full)
GI50 (UACC-257 melanoma): 27.5 µM | TGI (UACC-257 melanoma): 24.6 µM and > 100 µM | GI50 (BT-549 breast): 6.48 µM and 7.49 µM | TGI (BT-549 breast): 23.8 µM and 25 µM and > 100 µM | GI50 (MDA-MB-435): 25300 nM | TGI (MDA-MB-435): 25 µM and > 100 µM | TGI (A498 renal): 19.6 µM and 29 µM and 41.5 µM | GI50 (KM12 colon): 4.49 µM | TGI (KM12 colon): 24.5 µM and 23 µM and > 100 µM | GI50 (SK-MEL-28 melanoma): > 29 µM and 28.1 µM | TGI (SK-MEL-28 melanoma): 25 µM and > 29 µM and > 100 µM

COC1CCC(OS(C)(=O)=O)CO1 (stereo not given)
TGI (UACC-257 melanoma): > 100 µM | TGI (A498 renal): > 100 µM | TGI (KM12 colon): > 100 µM | TGI (NCI-H23 lung): > 100 µM | TGI (SF-268 CNS): > 100 µM | TGI (SK-MEL-28 melanoma): > 100 µM

O=C(O)C(Cc1ccccc1)N1C(=O)c2ccccc2C1=O (stereo not given)
TGI (UACC-257 melanoma): > 100 µM | TGI (BT-549 breast): > 100 µM | TGI (MDA-MB-435): > 100 µM | TGI (HCC-2998 colon): > 100 µM | TGI (A498 renal): > 100 µM | TGI (KM12 colon): > 100 µM | TGI (NCI-H23 lung): > 100 µM | TGI (SF-268 CNS): > 100 µM | TGI (SK-MEL-28 melanoma): 30.4 µM | TGI (NCI-H226 lung): > 100 µM

CN1CCC23c4ccccc4NC1C21CCN(C)C3Nc2ccccc21
TGI (UACC-257 melanoma): 231 µM | TGI (HCC-2998 colon): > 375 µM | TGI (A498 renal): > 375 µM | TGI (KM12 colon): > 284 µM | TGI (NCI-H23 lung): > 375 µM | TGI (SK-MEL-28 melanoma): > 375 µM | TGI (NCI-H226 lung): > 209 µM

C[N+]1(C)C2CCC1CC(OC(=O)C(CO)c1ccccc1)C2 (stereo not given)
TGI (UACC-257 melanoma): > 100 µM | TGI (BT-549 breast): > 100 µM | TGI (MDA-MB-435): > 100 µM | TGI (A498 renal): > 100 µM | TGI (KM12 colon): > 100 µM | TGI (NCI-H23 lung): > 100 µM | TGI (SF-268 CNS): > 100 µM | TGI (SK-MEL-28 melanoma): > 100 µM | TGI (NCI-H226 lung): > 100 µM

O=C1CCC(NC(=O)Cc2ccc(O)cc2)C(=O)N1 (stereo not given)
TGI (UACC-257 melanoma): > 2500 µM | TGI (A498 renal): > 2500 µM | TGI (KM12 colon): > 2500 µM | TGI (NCI-H23 lung): > 2500 µM | TGI (SF-268 CNS): > 2500 µM | TGI (SK-MEL-28 melanoma): > 2500 µM | TGI (NCI-H226 lung): > 2500 µM

CN1CCN(CCCOc2ccc3ncnc(Nc4ccc(Oc5cccc(C(F)(F)F)c5)c(Cl)c4)c3c2)CC1
GI50 (UACC-257 melanoma): 1.82 µM | TGI (UACC-257 melanoma): 3.75 µM | GI50 (MDA-MB-435): 1530 nM | TGI (MDA-MB-435): 3.09 µM | GI50 (HCC-2998 colon): 1550 nM | TGI (HCC-2998 colon): 3.16 µM | GI50 (A498 renal): 1420 nM | TGI (A498 renal): 3.23 µM | GI50 (KM12 colon): 1.86 µM | TGI (KM12 colon): 4.01 µM | GI50 (NCI-H23 lung): 1810 nM | TGI (NCI-H23 lung): 4.04 µM | GI50 (SF-268 CNS): 1440 nM | TGI (SF-268 CNS): 3.12 µM | GI50 (SK-MEL-28 melanoma): 1.63 µM | TGI (SK-MEL-28 melanoma): 3.01 µM | GI50 (NCI-H226 lung): 21 µM | TGI (NCI-H226 lung): 52 µM

Cc1c(Cl)c(=O)oc2cc(OCC(=O)c3ccccc3)ccc12
TGI (UACC-257 melanoma): > 100 µM | TGI (BT-549 breast): > 100 µM | TGI (MDA-MB-435): > 100 µM | TGI (HCC-2998 colon): > 100 µM | TGI (A498 renal): > 100 µM | TGI (KM12 colon): > 100 µM | TGI (NCI-H23 lung): > 100 µM | TGI (SF-268 CNS): > 100 µM | TGI (SK-MEL-28 melanoma): > 100 µM | TGI (NCI-H226 lung): > 100 µM

N=C(N)C(N=Nc1ccccc1)C(=N)N (stereo not given)
TGI (UACC-257 melanoma): > 100 µM | TGI (BT-549 breast): > 100 µM | TGI (MDA-MB-435): 42.7 µM | TGI (HCC-2998 colon): 32.9 µM | TGI (A498 renal): > 100 µM | TGI (KM12 colon): > 100 µM | TGI (NCI-H23 lung): > 100 µM | TGI (SF-268 CNS): > 100 µM | TGI (SK-MEL-28 melanoma): > 100 µM | TGI (NCI-H226 lung): 73.8 µM

Cc1nc(Cl)c(C)c(Cl)n1
TGI (UACC-257 melanoma): > 100 µM | TGI (BT-549 breast): > 100 µM | TGI (MDA-MB-435): > 100 µM | TGI (HCC-2998 colon): > 100 µM | TGI (A498 renal): > 100 µM | TGI (KM12 colon): > 100 µM | TGI (NCI-H23 lung): > 100 µM | TGI (SF-268 CNS): > 100 µM | TGI (SK-MEL-28 melanoma): > 100 µM | TGI (NCI-H226 lung): > 100 µM

CCN(CC)/C(=C\Cl)Nc1ccccn1
TGI (UACC-257 melanoma): > 100 µM | TGI (HCC-2998 colon): > 100 µM | TGI (A498 renal): > 100 µM | TGI (KM12 colon): > 100 µM | TGI (NCI-H23 lung): > 100 µM | TGI (SF-268 CNS): > 100 µM | TGI (SK-MEL-28 melanoma): > 100 µM | TGI (NCI-H226 lung): > 100 µM

CO[C@@]12C[C@@H](CNC(=O)c3cc(Br)c[nH]3)O[C@@H]1NC(=O)N2
TGI (UACC-257 melanoma): > 100 µM | TGI (BT-549 breast): > 100 µM | TGI (MDA-MB-435): > 100 µM | TGI (A498 renal): > 100 µM | TGI (KM12 colon): > 100 µM | TGI (NCI-H23 lung): > 100 µM | TGI (SF-268 CNS): > 100 µM | TGI (SK-MEL-28 melanoma): > 100 µM | TGI (NCI-H226 lung): > 100 µM
